In US20100249071A1, “Modulators of S1P and Methods of Making And Using” (Exelixis, Inc., priority 2009, published 2010):

Tests used:
[1] = target: T1, hS1PR5 (hEdg8) membrane protein (Homo sapiens, UniProt Q9H228); test: hS1P5R GTPγS binding assay (Assay 4); format: biochemical
T1 construct: expressed in transfected cells; host or cells: CHO
Procedure, shortened: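 Membranes (5 μg) from CHO cells expressing hS1PR5, incubated 1 h at room temperature with 30 μM GDP, 0.1 nM [35S]GTPγS, 0.25% fatty acid free BSA and serially diluted compound in pH 7.9 Tris buffer with MgCl2. WGA SPA beads added for another 1 h, then bound [35S]GTPγS counted by scintillation.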

[2] = test system: circulating lymphocytes; test: Lymphocyte PD assay in rats; format: in vivo, rat; details: 24 hours after oral single dose at 3 mg/kg, Female CD rats (Sprague Dawley), compared to vehicle-only group
Experimental: Suppression of circulating lymphocytes was assessed as a PD endpoint in jugular vein canulated Sprague Dawely (SD) rats 6-8 weeks of age and weighing approximately 200 g (Taconic Farms, Germantown, N.Y.). Prior initiating a study, rats were acclimated to the vivarium facility (12 h light cycle, 12 h dark cycle) for a minimum of 2 days. During a study, animals were provided food and water ad libitum and housed in a room conditioned at 70-75° F. and 60% relative humidity. All animals were examined daily for health assessment.
The Compound of the Invention were formulated and animals was dosed at a volume of 4 mL/kg. At indicated timepoints, whole blood was collected via jugular vein canulas into EDTA-coated tubes and hematology analysis was performed on an Abbott Cell-Dyn 3700 hematology analyzer. Readouts included white blood cells (total, differential, and % of total), neutrophils, lymphocytes, monocytes, eosinophils, basophils, RBC, HGB, hematocrit, mean corpuscule volume, mean corpuscule HGB concentration, RBC distribution width, platelets, and mean platelet volume.

[3] = target: T2, S1P1 (Homo sapiens, UniProt P21453); test: Tango β-arrestin recruitment assay in U2OS cells (Assay 2b); format: cell-based; details: read-out: Assay 2b EC50
T2 construct: host or cells: U2OS
Procedure, shortened: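 In this agonist-mode Tango assay, U2OS cells carrying S1P1 and the reporter were serum-starved 48 h, then exposed overnight at 37 °C to compound (10 points, 3-fold, top 1 μM, 1% DMSO). β-Lactamase F460/F530 ratio was normalized to 1 μM S1P, and EC50 was fitted.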

[4] = target: T3, hS1P1R (hEdg1) membrane protein (Homo sapiens, UniProt P21453); test: hS1P1R GTPγS binding assay (Assay 3a); format: biochemical
T3 construct: purchased Lonza
Procedure, shortened: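 Membranes (4 μg) expressing hS1P1R incubated 1 h at room temperature with 30 μM GDP, 0.1 nM [^35S]GTPγS, 0.25% fatty acid free BSA and serially diluted agonist in Tris-HCl pH 7.9/NaCl/MgCl2/EGTA buffer. Bound [^35S]GTPγS captured on WGA SPA beads (further 1 h) and counted.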

[5] = target: T4, S1P3 (Homo sapiens, UniProt Q99500); test: S1P3 Tango β-arrestin recruitment assay in HEK293 cells (Assay 5); format: cell-based; details: read-out: Assay 5 EC50
T4 construct: host or cells: HEK293 (transient transfection)
Procedure, shortened: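 HEK293 cells transiently expressing S1P3 fused via TEV-cleavable linker to tTA, with β-arrestin2–TEV, treated 16-18 h at 37 °C with compounds (top 10 μM, 10-point 3-fold, 1% DMSO). Luciferase reporter luminescence normalised to DMSO background and 5 μM S1P control as percent activity; EC50 from concentration-response curves.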

T1 sequence (Q9H228 whole entry): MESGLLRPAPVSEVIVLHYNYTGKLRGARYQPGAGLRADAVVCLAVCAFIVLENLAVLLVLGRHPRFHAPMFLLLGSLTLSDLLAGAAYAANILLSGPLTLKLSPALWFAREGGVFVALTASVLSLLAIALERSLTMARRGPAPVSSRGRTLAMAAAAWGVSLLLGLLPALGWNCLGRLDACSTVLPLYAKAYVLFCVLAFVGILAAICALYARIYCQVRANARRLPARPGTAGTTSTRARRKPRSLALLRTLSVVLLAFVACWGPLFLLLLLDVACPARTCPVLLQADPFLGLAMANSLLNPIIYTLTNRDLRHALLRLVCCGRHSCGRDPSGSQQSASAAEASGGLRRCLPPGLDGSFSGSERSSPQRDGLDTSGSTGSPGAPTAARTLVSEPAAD
T2 sequence (P32121 whole entry): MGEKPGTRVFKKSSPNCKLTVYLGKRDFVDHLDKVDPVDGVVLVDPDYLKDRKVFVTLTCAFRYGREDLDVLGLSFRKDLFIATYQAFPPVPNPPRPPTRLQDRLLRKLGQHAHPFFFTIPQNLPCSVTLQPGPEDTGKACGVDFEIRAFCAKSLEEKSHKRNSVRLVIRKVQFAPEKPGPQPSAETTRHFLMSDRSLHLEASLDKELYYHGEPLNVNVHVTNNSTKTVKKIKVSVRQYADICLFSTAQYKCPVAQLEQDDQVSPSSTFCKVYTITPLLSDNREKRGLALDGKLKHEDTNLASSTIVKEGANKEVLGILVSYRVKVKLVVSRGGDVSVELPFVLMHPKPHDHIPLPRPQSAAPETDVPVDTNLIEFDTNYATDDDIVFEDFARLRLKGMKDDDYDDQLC
T2 sequence (P21453 whole entry): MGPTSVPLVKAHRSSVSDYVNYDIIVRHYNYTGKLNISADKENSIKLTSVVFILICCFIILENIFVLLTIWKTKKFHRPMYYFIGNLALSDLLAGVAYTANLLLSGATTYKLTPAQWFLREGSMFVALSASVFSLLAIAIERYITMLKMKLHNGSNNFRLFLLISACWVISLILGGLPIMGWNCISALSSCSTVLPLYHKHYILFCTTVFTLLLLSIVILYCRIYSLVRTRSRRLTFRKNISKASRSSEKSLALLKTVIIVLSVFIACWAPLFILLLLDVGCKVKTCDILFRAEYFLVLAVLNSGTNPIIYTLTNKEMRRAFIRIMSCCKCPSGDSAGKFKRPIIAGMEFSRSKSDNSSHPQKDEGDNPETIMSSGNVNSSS
T4 sequence (P32121 whole entry): as the sequence (P32121 whole entry) above
T4 sequence (Q99500 whole entry): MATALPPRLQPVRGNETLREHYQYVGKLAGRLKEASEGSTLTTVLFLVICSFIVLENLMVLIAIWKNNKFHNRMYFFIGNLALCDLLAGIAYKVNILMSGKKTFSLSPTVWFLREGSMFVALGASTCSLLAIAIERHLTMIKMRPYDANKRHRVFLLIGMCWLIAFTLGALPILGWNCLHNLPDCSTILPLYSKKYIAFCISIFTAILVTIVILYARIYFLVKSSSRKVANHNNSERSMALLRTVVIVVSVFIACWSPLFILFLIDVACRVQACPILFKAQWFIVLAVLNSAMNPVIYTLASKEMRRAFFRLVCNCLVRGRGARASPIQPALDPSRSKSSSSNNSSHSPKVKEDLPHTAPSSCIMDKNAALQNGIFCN
T3 sequence (P21453 whole entry): as the sequence (P21453 whole entry) above

| Compound | EC50 [1] | EC50 [3] | EC50 [4] | EC50 [5] | Lymphocyte Counts (p < 0.05) [2] |
| --- | --- | --- | --- | --- | --- |
| CC(C)Oc1ccc(-c2nnc(-c3cc(F)c(OC[C@H](N)CO)cc3Cl)s2)cc1Br [Entry 2, (2R)-2-amino-3-{[4-(5-{3-bromo-4-[(1-methylethyl)oxy]phenyl}-1,3,4-thiadiazol-2-yl)-5-chloro-2-fluorophenyl]oxy}propan-1-ol] | 10 to 50 nM | 10 to 50 nM | ≤ 10 nM | > 10000 nM | −93% |
| Cc1cc(-c2nnc(-c3cc(F)c(OC[C@H](N)[C@@H](C)O)cc3Cl)s2)cc(NC(C)C)n1 [Entry 62, (2R,3S)-3-amino-4-{[5-chloro-2-fluoro-4-(5-{2-methyl-6-[(1-methylethyl)amino]pyridin-4-yl}-1,3,4-thiadiazol-2-yl)phenyl]oxy}butan-2-ol] | 10 to 50 nM | ≤ 10 nM | ≤ 10 nM | > 10000 nM | −79% |
| CC(C)Nc1ccc(-c2nnc(-c3cc(F)c(OCC(N)CO)cc3Cl)s2)cn1 (centres unmarked) [Entry 44, 2-amino-3-{[5-chloro-2-fluoro-4-(5-{6-[(1-methylethyl)amino]pyridin-3-yl}-1,3,4-thiadiazol-2-yl)phenyl]oxy}propan-1-ol] | 250 to 2800 nM | ≤ 10 nM | 250 to 2800 nM | > 10000 nM | −94% |
| CC(C)Oc1ccc(-c2nnc(-c3cc(F)c(OC[C@H](N)CO)cc3Cl)s2)cc1C#N [Entry 37, 5-[5-(4-{[(2R)-2-amino-3-hydroxypropyl]oxy}-2-chloro-5-fluorophenyl)-1,3,4-thiadiazol-2-yl]-2-[(1-methylethyl)oxy]benzonitrile] | 10 to 50 nM | ≤ 10 nM | ≤ 10 nM | > 10000 nM | −93% |
| CC(C)Oc1ccc(-c2nnc(-c3cc(F)c(OC[C@H](N)CO)cc3Cl)s2)cc1Cl [Entry 1, (2R)-2-amino-3-{[5-chloro-4-(5-{3-chloro-4-[(1-methylethyl)oxy]phenyl}-1,3,4-thiadiazol-2-yl)-2-fluorophenyl]oxy}propan-1-ol] | 10 to 50 nM | 10 to 50 nM | 10 to 50 nM | > 10000 nM | −80% |
| CC(C)Nc1ccc(-c2nnc(-c3cc(F)c(OC[C@@H](N)[C@H](C)O)cc3Cl)s2)cn1 [Entry 59, (2S,3R)-3-amino-4-{[5-chloro-2-fluoro-4-(5-{6-[(1-methylethyl)amino]pyridin-3-yl}-1,3,4-thiadiazol-2-yl)phenyl]oxy}butan-2-ol] | 250 to 2800 nM | ≤ 10 nM | 250 to 2800 nM | > 10000 nM | – |
| (1R,2S)-2-amino-3-{[5-chloro-2-fluoro- 4-(5-{3-methyl-4-[(1- methylethyl)oxy]phenyl}-1,3,4- thiadiazol-2-yl)phenyl]oxy}-1- methylpropyl dihydrogen phosphate [Entry 99] | 10 to 50 nM | ≤ 10 nM | ≤ 10 nM | ≤ 250 nM | – |

Second part, led by results:

| EC50 [1] | EC50 [3] | EC50 [4] | EC50 [5] | Compound | Lymphocyte Counts (p < 0.05) [2] |
| --- | --- | --- | --- | --- | --- |
| 250 to 2800 nM | ≤ 10 nM | 250 to 2800 nM | > 10000 nM | CC(C)Nc1ccc(-c2nnc(-c3cc(F)c(OC[C@@H](N)CO)cc3Cl)s2)cn1 [Entry 77, (2S)-2-amino-3-{[5-chloro-2-fluoro-4-(5-{6-[(1-methylethyl)amino]pyridin-3-yl}-1,3,4-thiadiazol-2-yl)phenyl]oxy}propan-1-ol] | −94% |
| 10 to 50 nM | ≤ 10 nM | ≤ 10 nM | > 10000 nM | CC(C)Oc1ccc(-c2nnc(-c3cc(F)c(OC[C@H](N)[C@@H](C)O)cc3Cl)s2)cc1Cl [Entry 73, (2R,3S)-3-amino-4-{[5-chloro-4-(5-{3-chloro-4-[(1-methylethyl)oxy]phenyl}-1,3,4-thiadiazol-2-yl)-2-fluorophenyl]oxy}butan-2-ol] | −89% |
| 50 to 250 nM | ≤ 10 nM | 10 to 50 nM | > 10000 nM | CC(C)Oc1ccc(-c2nnc(-c3cc(F)c(OC[C@H](N)[C@H](C)O)cc3Cl)s2)cc1Cl [Entry 72, (2S,3S)-3-amino-4-{[5-chloro-4-(5-{3-chloro-4-[(1-methylethyl)oxy]phenyl}-1,3,4-thiadiazol-2-yl)-2-fluorophenyl]oxy}butan-2-ol] | −86% |
| 2800 to 10000 nM | 10 to 50 nM | 50 to 250 nM | > 10000 nM | Cc1cc(-c2nnc(-c3cc(F)c(OC[C@H](N)[C@@H](C)O)cc3Cl)s2)cnc1NC(C)C [Entry 65, (2R,3S)-3-amino-4-{[5-chloro-2-fluoro-4-(5-{5-methyl-6-[(1-methylethyl)amino]pyridin-3-yl}-1,3,4-thiadiazol-2-yl)phenyl]oxy}butan-2-ol] | – |
| 2800 to 10000 nM | ≤ 10 nM | 250 to 2800 nM | > 10000 nM | Cc1cc(-c2nnc(-c3cc(F)c(OC[C@@H](N)[C@H](C)O)cc3Cl)s2)cnc1NC(C)C [Entry 96, (2S,3R)-3-amino-4-{[5-chloro-2-fluoro-4-(5-{5-methyl-6-[(1-methylethyl)amino]pyridin-3-yl}-1,3,4-thiadiazol-2-yl)phenyl]oxy}butan-2-ol] | – |
